According to US20230165979A1, “COPPER-CONTAINING THERAGNOSTIC COMPOSITIONS AND METHODS OF USE” (Cornell University, priority 2020, published 2023):

Legend:
[1] = molecular target: T1, PSMA on LNCaP cells (Homo sapiens, UniProt Q04609); test: Multi-concentration competitive binding assay against 99mTc-MIP-1427
T1 construct: host or cells: LNCaP
Protocol: The PSMA-expressing human prostate cancer cell line, LNCaP, was obtained from the American Type Culture Collection. Cell culture supplies were obtained from Invitrogen (USA) unless otherwise noted. LNCaP cells were maintained in RPMI-1640 medium supplemented with 10% fetal bovine serum (Hyclone), 4 mM L-glutamine, 1 mM sodium pyruvate, 10 mM N-2-hydroxyethylpiperazine-N-2-ethanesulfonic acid (HEPES), 2.5 mg/mL D-glucose, and […] gentamicin in a humidified incubator at 37° C./5% CO2. Cells were removed from flasks for passage or for transfer to 12-well assay plates by incubating them with 0.25% trypsin/ethylenediaminetetraacetic acid (EDTA).
The IC50 of metal-free RPS-085 was determined in a multi-concentration competitive binding assay against ^99mTc-MIP-1427 (Hillier et al., J Nucl Med. 2013; 54: 1369-76) for binding to PSMA on LNCaP cells, according to previously described methods (Kelly et al., Eur J Nucl Med Mol Imaging. 2018; 45: 1841-51). RPS-085 was added in to the wells in final concentrations ranging from 1 pM-10 μM. The assay was performed in triplicate, and the IC50 was expressed as mean±standard deviation.

[2] = Stability of the reformulated radioligand solution at 25° C.; format: physicochemical; conditions: after reformulation, radioHPLC
Protocol: The stability of the reformulated [^64Cu]Cu-RPS-085 solution was determined in triplicate at 25° C. Three 1 mL samples at a radioactivity concentration of approximately 10 MBq/mL and radiochemical purity >99% were transferred to Eppendorf tubes (VWR, USA). The samples were incubated for 24 h at 25° C. in an Eppendorf ThermoMixer® C (VWR, USA). Radiochemical purity was determined by analytical reverse phase (radio)HPLC and expressed as a fraction of the purity of the sample prior to incubation. After reformulation, [^64Cu]Cu-RPS-085 was stable at room temperature for more than 24 h.

[3] = Plasma stability; format: in vitro ADME, human; conditions: 37° C.
Protocol: The plasma stability of [^67Cu]Cu-RPS-085 was determined according to previously described methods (Alt, et al., Mol Pharmaceutics. 2014; 11: 2855-63). Briefly, frozen human plasma was purchased from Sigma Aldrich (USA), thawed at 37° C., and 200 μL aliquots were transferred to Eppendorf tubes. A 100 μL aliquot of [^67Cu]Cu-RPS-085 in 10% EtOH/saline was added to each tube, and the mixture was shaken at 300 rpm for 24 h at 37° C. on an Eppendorf ThermoMixer® C (VWR, USA). The experiment was performed in triplicate. The proteins were precipitated by addition of 600 μL acetonitrile. The samples were centrifuged at 13500 rpm for 3 min in an Eppendorf 5424-R Centrifuge. The supernatant was analyzed by analytical reverse phase (radio)HPLC as described above. After 24 h incubation in human plasma, [^67Cu]Cu-RPS-085 was 97.4±0.4% intact. The lone radiochemical impurity was an unidentified fragment of the parent compound.

[4] = test system: LNCaP xenograft tumors; test: microPET/CT imaging in LNCaP xenograft mouse model; format: in vivo, male BALB/c athymic nu/nu mice
Protocol: (§1) All animal studies were approved by the Institutional Animal Care and Use Committee of Weill Cornell Medicine and were undertaken in accordance with the guidelines set forth by the USPHS Policy on Humane Care and Use of Laboratory Animals. The mice were housed under standard conditions in approved facilities with 12 h light/dark cycles. Food and water was provided ad libitum throughout the course of the studies. Male BALB/c athymic nu/nu mice were purchased from the Jackson Laboratory (USA). Prior to inoculation, LNCaP cells were suspended at a density of 4×10^7 cells/mL in a 1:1 mixture of PBS (VWR, USA):Matrigel (BD Biosciences, USA). Each mouse was injected subcutaneously in the left flank with 0.25 mL of the cell suspension. The animals were monitored twice weekly until palpable tumors emerged.
When tumor size was in the range 200-500 mm^3, mice (n=4) were administered 21.2±0.5 MBq [^64Cu]Cu-RPS-085 by intravenous injection. The total mass dose received by each animal was approximately 300 ng (185 pmol). The mice were imaged under isoflurane anesthesia at 1 h, 3 h, 6 h, 24 h, and 48 h post injection (p.i.) by microPET/CT (Inveon™; Siemens Medical Solutions, USA). Total acquisition time was 30 min. A CT scan was obtained immediately before the PET acquisition for both anatomical co-registration and attenuation correction. Images were reconstructed using the Inveon™ software provided by the vendor.

[5] = test system: LNCaP xenografts; test: Tissue biodistribution in mice bearing LNCaP xenografts; format: in vivo, male Balb/C nu/nu mice; conditions: for activity in kidneys / tumor uptake: i.v., ±SEM
Protocol: as §1
When tumor size reached approximately 200 mm^3, mice (n=4/time point) were administered 3.8±0.1 MBq [^64Cu]Cu-RPS-085 or 0.8±0.005 MBq [^67Cu]Cu-RPS-085 by intravenous injection. The total mass dose received by each animal was approximately 50 ng (31 pmol) and approximately 28 ng (17 pmol) for the [^64Cu]Cu-RPS-085 and [^67Cu]Cu-RPS-085 studies, respectively. The mice were sacrificed at 4 h, 24 h, or 48 h p.i. ([^64Cu]Cu-RPS-085) or 4 h, 24 h, and 96 h ([^67Cu]Cu-RPS-085). A blood sample was collected, and the following tissues were collected and weighed wet using a digital balance: heart, lungs, liver, stomach, small intestine, large intestine, spleen, pancreas, kidneys, muscle, bone, and tumor. The tissues were counted on a Wizard2 Automatic Gamma Counter (Perkin Elmer, USA) against a 1% injected dose standard. The counts were corrected for decay and for activity injected, and tissue uptake was expressed as percent injected dose per gram (% ID/g). Standard error of the mean (SEM) was calculated for each data point. Statistical analyses were performed using an unpaired t test with GraphPad Prism software. A P value of less than 0.05 was considered significant. The concentration of [67Cu]Cu-RPS-085 found in blood, heart, lungs, liver, small intestine, large intestine, stomach, spleen, pancreas, kidneys, muscle, and bone at 4 h, 24 h, and 96 h, post injection (n=4 per time point) is shown in Table 1 below. Published values for [177Lu]Lu-RPS-063 are shown for comparison; all concentrations are expressed as percent injected dose per organ.

T1 sequence (Q04609 whole entry): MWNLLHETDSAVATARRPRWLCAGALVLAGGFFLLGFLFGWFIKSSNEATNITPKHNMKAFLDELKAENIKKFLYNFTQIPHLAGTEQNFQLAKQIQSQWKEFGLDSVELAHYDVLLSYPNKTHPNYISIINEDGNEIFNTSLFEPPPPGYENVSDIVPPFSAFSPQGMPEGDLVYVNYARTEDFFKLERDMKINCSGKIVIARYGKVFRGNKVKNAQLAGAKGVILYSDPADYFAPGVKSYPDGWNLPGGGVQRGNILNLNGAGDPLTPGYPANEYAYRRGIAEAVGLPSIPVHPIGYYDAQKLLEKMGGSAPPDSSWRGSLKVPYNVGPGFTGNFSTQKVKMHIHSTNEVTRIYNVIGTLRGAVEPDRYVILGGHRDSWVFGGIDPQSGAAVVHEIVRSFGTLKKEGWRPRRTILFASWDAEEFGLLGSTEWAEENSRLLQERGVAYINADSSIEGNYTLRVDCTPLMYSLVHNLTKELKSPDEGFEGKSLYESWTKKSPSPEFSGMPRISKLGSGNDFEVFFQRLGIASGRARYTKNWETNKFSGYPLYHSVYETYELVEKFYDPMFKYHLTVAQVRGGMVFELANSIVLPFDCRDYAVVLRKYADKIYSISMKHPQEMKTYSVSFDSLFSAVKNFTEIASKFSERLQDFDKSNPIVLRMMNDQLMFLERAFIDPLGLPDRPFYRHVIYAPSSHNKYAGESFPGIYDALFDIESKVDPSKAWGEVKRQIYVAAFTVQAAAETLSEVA

CC12CNCCNCC(NC(=O)CCCC(=O)NCCCC[C@H](NC(=O)CCOCCOCCOCCn3cc(-c4cccc(NC(=O)NCCCC[C@H](NC(=O)N[C@@H](CCC(=O)O)C(=O)O)C(=O)O)c4)nn3)C(=O)N[C@@H](CCCCNC(=O)Cc3ccc(I)cc3)C(=O)O)(CNCCNC1)CNCCNC2 [RPS-085]
IC50 [1]: 29.1 ± 2.4 nM
affinity for PSMA relative to parent compound RPS-063 [1]: reduced by approximately one order of magnitude

CC12CNCCNCC(NC(=O)CCCC(=O)NCCCC[C@H](NC(=O)CCOCCOCCOCCn3cc(-c4cccc(NC(=O)NCCCC[C@H](NC(=O)N[C@@H](CCC(=O)O)C(=O)O)C(=O)O)c4)nn3)C(=O)N[C@@H](CCCCNC(=O)Cc3ccc(I)cc3)C(=O)O)(CNCCNC1)C[N@]1CC[N@](C2)[Cu]1 [[^64/67Cu]Cu-RPS-085]
time stable in solution at room temperature [2]: more than 24 h
time stable in human plasma [3]: more than 24 h

CC12CNCCNCC(NC(=O)CCCC(=O)NCCCC[C@H](NC(=O)CCOCCOCCOCCn3cc(-c4cccc(NC(=O)NCCCC[C@H](NC(=O)N[C@@H](CCC(=O)O)C(=O)O)C(=O)O)c4)nn3)C(=O)N[C@@H](CCCCNC(=O)Cc3ccc(I)cc3)C(=O)O)(CNCCNC1)CNCCNC2.[64Cu+2] [[^64Cu]Cu-RPS-085]
background tissue activity ([4]; microPET/CT): low
primary route of excretion ([4]; microPET/CT): Renal clearance
time by which only tumors could be visualized ([4]; microPET/CT): ≤ 24 h
time by which uptake in tumors exceeded kidneys ([4]; mouse, in vivo): ≤ 6 h p.i.
time of greatest activity in the tumor ([4]; mouse, in vivo): 3 h p.i.
activity in the tumor over time ([4]; over the 48 h imaging window, semi-quantitative, ROIs): virtually stable
time stable in solution at room temperature [2]: more than 24 h
tumor-to-blood ratio ([5]; 4 h p.i.): 230±33
tumor-to-kidney ratio ([5]; 4 h p.i.): 0.9±0.2
activity in kidneys ([5]; 4 h p.i.): 13.7±2.3 % ID/g
tumor uptake ([5]; 4 h p.i.): 12.9±1.4 % ID/g
tumor-to-kidney ratio ([5]; 24 h p.i.): 3.4±0.7
activity in kidneys ([5]; 24 h p.i.): 2.4±0.4 % ID/g
tumor uptake ([5]; 24 h p.i.): 8.3±0.8 % ID/g
tumor-to-kidney ratio ([5]; 48 h p.i.): 6.1±0.8
activity in kidneys ([5]; 48 h p.i.): 1.6±0.1 % ID/g
tumor uptake ([5]; 48 h p.i.): 9.8±1.3 % ID/g
tumor-to-muscle ratio ([5]; all observed time points): greater than 500
activity in all other tissues including liver ([5]; all time points (4, 24, 48 h p.i.)): less than 0.5 % ID/g
tumor-to-blood ratio ([5]; subsequently (after 4 h p.i.)): exceeded 400

CC12CNCCNCC(NC(=O)CCCC(=O)NCCCC[C@H](NC(=O)CCOCCOCCOCCn3cc(-c4cccc(NC(=O)NCCCC[C@H](NC(=O)N[C@@H](CCC(=O)O)C(=O)O)C(=O)O)c4)nn3)C(=O)N[C@@H](CCCCNC(=O)Cc3ccc(I)cc3)C(=O)O)(CNCCNC1)CNCCNC2.[67Cu+2] [[^67Cu]Cu-RPS-085]
fraction intact after incubation in human plasma ([3]; 24 h): 97.4±0.4%
uncomplexed [67Cu]Cu2+ after incubation in human plasma ([3]; 24 h): No uncomplexed [^67Cu]Cu^2+ was observed
activity in kidneys ([5]; 4 h p.i.): 19.7±5.0 % ID/g
tumor uptake ([5]; 4 h p.i.): 12.5±2.7 % ID/g
Concentration in Blood ([5]; 4 h post injection): 0.02057 percent injected dose per organ
Concentration in Bone ([5]; 4 h post injection): 0.003853 percent injected dose per organ
Concentration in Heart ([5]; 4 h post injection): 0.01078 percent injected dose per organ
Concentration in Kidneys ([5]; 4 h post injection): 11.63 percent injected dose per organ
Concentration in Large Intestine ([5]; 4 h post injection): 0.29 percent injected dose per organ
Concentration in Liver ([5]; 4 h post injection): 0.2795 percent injected dose per organ
Concentration in Lungs ([5]; 4 h post injection): 0.0358 percent injected dose per organ
Concentration in Muscle ([5]; 4 h post injection): 0.002757 percent injected dose per organ
Concentration in Pancreas ([5]; 4 h post injection): 0.00535 percent injected dose per organ
Concentration in Small Intestine ([5]; 4 h post injection): 0.1493 percent injected dose per organ
Concentration in Spleen ([5]; 4 h post injection): 0.02732 percent injected dose per organ
Concentration in Stomach ([5]; 4 h post injection): 0.05547 percent injected dose per organ
activity in kidneys ([5]; 24 h p.i.): 4.5±0.8 % ID/g
tumor uptake ([5]; 24 h p.i.): 7.9±0.9 % ID/g
Concentration in Blood ([5]; 24 h post injection): 0.005816 percent injected dose per organ
Concentration in Bone ([5]; 24 h post injection): 0.001592 percent injected dose per organ
Concentration in Heart ([5]; 24 h post injection): 0.0068 percent injected dose per organ
Concentration in Kidneys ([5]; 24 h post injection): 1.857 percent injected dose per organ
Concentration in Large Intestine ([5]; 24 h post injection): 0.1354 percent injected dose per organ
Concentration in Liver ([5]; 24 h post injection): 0.1811 percent injected dose per organ
Concentration in Lungs ([5]; 24 h post injection): 0.01881 percent injected dose per organ
Concentration in Muscle ([5]; 24 h post injection): 0.001018 percent injected dose per organ
Concentration in Pancreas ([5]; 24 h post injection): 0.002143 percent injected dose per organ
Concentration in Small Intestine ([5]; 24 h post injection): 0.08652 percent injected dose per organ
Concentration in Spleen ([5]; 24 h post injection): 0.008292 percent injected dose per organ
Concentration in Stomach ([5]; 24 h post injection): 0.04228 percent injected dose per organ
tumor-to-kidney ratio ([5]; 96 h p.i.): 3.0±0.5
activity in kidneys ([5]; 96 h p.i.): 1.7±0.3 % ID/g
tumor uptake ([5]; 96 h p.i.): 5.1±3.3 % ID/g
Concentration in Blood ([5]; 96 h post injection): 0.003526 percent injected dose per organ
Concentration in Bone ([5]; 96 h post injection): 0.001075 percent injected dose per organ
Concentration in Heart ([5]; 96 h post injection): 0.008094 percent injected dose per organ
Concentration in Kidneys ([5]; 96 h post injection): 0.6854 percent injected dose per organ
Concentration in Large Intestine ([5]; 96 h post injection): 0.1379 percent injected dose per organ
Concentration in Liver ([5]; 96 h post injection): 0.1208 percent injected dose per organ
Concentration in Lungs ([5]; 96 h post injection): 0.01063 percent injected dose per organ
Concentration in Muscle ([5]; 96 h post injection): 0.000956 percent injected dose per organ
Concentration in Pancreas ([5]; 96 h post injection): 0.003044 percent injected dose per organ
Concentration in Small Intestine ([5]; 96 h post injection): 0.06091 percent injected dose per organ
Concentration in Spleen ([5]; 96 h post injection): 0.005006 percent injected dose per organ
Concentration in Stomach ([5]; 96 h post injection): 0.04483 percent injected dose per organ
accumulated activity (Ã) in kidneys ([5]; over 96 h p.i.): 538 (% ID/g)·h
accumulated activity (Ã) in tumors ([5]; over 96 h p.i.): 699 (% ID/g)·h
Ãtumor relative to [177Lu]PSMA-617 ([5]; over 96 h p.i.): 1.3 times
Ãtumor/Ãkidney ratio ([5]; over 96 h p.i.): 1.3
